# Results reported in patent US12245576B2, “Method for genetic manipulation of sap-feeding insects” (The Regents of the University of California, priority 2018, dated 2025).
# “And” between values parts separate entries of the source, which are not always exact repeats. Equal entries are not always repeated. Where two headings read alike, the source gives them in different places.
# How the values were obtained:
# plant-derived fungi [1] = assay: DMSO/miconazole dips, control of fungi on leaf-discs; details: dipping of leaf-discs in 8% DMSO and 5 μg/ml miconazole
# Experimental: There was no surface sterilization pretreatment; (2) discs were dipped several times in 20% DMSO, 8% DMSO or water (control). Discs were allowed to dry for a short time in the hood. […] Plates were covered with two fabric screens. […] Plates were covered with one fabric screen. In most experiments both incubators were used; […].
# eggplant leaf-discs = assay: Phytohormone treatment, root production from eggplant leaf-discs
# Experimental: (§1) • 1. Leaf-discs (2.7-cm in diameter) were cut from Brassica leaves (Leaf #2, leaf #3) or eggplant leaves (see above). • 2. […] The discs were placed in Incubator B (higher humidity, higher light). Plates were covered with two fabric screens. • 4.
# Brassica leaf-discs = assay: Phytohormone treatment, calli and root production from Brassica leaf-discs
# Experimental: as §1
# leaf-discs [2] = assay: DMSO spray and dips, tolerance by leaf-discs
# Text: There was no surface sterilization pretreatment; (2) discs were placed on GB+GBV agar plates; (3) disc were sprayed using a Preval Atomizer with 20% DMSO or water (control); (4) some plates were allowed to dry overnight in the hood. […] Plates were covered with two fabric screens. […] Plates were covered with one fabric screen.
# There was no surface sterilization pretreatment; (2) discs were dipped several times in 20% DMSO, 8% DMSO or water (control). Discs were allowed to dry for a short time in the hood. […] Plates were covered with two fabric screens. […] Plates were covered with one fabric screen.
# plant-derived fungi [3] = assay: Surface sterilization of leaves/leaf-discs with EtOH and sodium hypochlorite, control of fungi
# Text: Plates were covered with two fabric screens. […] Plates were covered with one fabric screen.
# leaf-discs [4] = system: leaf-discs
# Experimental: Protocol 1: Ethanol and sodium hypochlorite: The method comprised the following steps: (1) whole leaves (Leaf 2 or leaf 3) were excised from plants; (2) leaves were dipped in 500 ml of 70% EtOH for 10-20 sec; (3) leaves were immersed in 500 ml of 0.01%, 0.06% or 0.24% NaClO for varying periods of time (1-20 min) with and without agitation of the liquid; (4) leaves were washed three to four times in distilled water (500-ml) each; (5) leaves were patted dry with paper towels; and (6) discs are cut from these pretreated leaves.
# Protocol 2: Ethanol and sodium hypochlorite: The method comprised the following steps: (1) leaf-discs (2.5-cm in diameter) were cut from leaf 2 (11.5-cm long) or leaf 3 from a 6-wk-old plants; (2) Discs were dipped in 500 ml of 70% EtOH for 10-20 sec; (3) Discs were immersed in 500 ml of 0.01%, 0.06% or 0.24% NaClO for varying periods of time (1-20 min) with and without agitation of the liquid; (4) Discs were washed three to four times in distilled water (500-ml) each; (5) Discs were patted dry with paper towels; (6) Discs were placed on GB+GBV agar plates, covered with a mesh lid, sealed with parafilm, and incubated agar side up; (7) In some experiments, GB-GBV plates were initially incubated agar side down to encourage root growth into the media. […]
compound,measurement,setting,value
Clc1ccc(COC(Cn2ccnc2)c2ccc(Cl)cc2Cl)c(Cl)c1 (stereo not drawn) [miconazole],slowing of growth of plant-derived fungi,plant-derived fungi [1],10 to 12 days
Indole butyric acid [IBA],discs that formed roots,eggplant leaf-discs,one
same,time after which roots formed,eggplant leaf-discs,10 days
same,Calli first day detected,Brassica leaf-discs,4 days and 5 days
same,Roots first detected,Brassica leaf-discs,5 days
same,time in which leaf-discs produced roots,Brassica leaf-discs,5 to 6 days
same,detection of roots,Brassica leaf-discs; 1.0 mg/L IBA,occasionally detected
same,number of root sites per disc,"Brassica leaf-discs; 2.5 mg/L IBA, day 5",1 site
same,roots per site,"Brassica leaf-discs; 2.5 mg/L IBA, day 5",1 root
same,% plates with calli,Brassica leaf-discs; 5 mg/L IBA,67% and 100%
same,Roots first detected,Brassica leaf-discs; 5 mg/L IBA,5 days
same,number of root sites per disc,"Brassica leaf-discs; 5 mg/L IBA, day 5",2 sites
same,roots per site,"Brassica leaf-discs; 5 mg/L IBA, day 5",3-4 roots per site
same,% plates with calli,Brassica leaf-discs; 7.5 mg/L IBA,100%
same,Roots first detected,Brassica leaf-discs; 7.5 mg/L IBA,6 days
same,% plates with calli,Brassica leaf-discs; 10 mg/L IBA,100%
same,Roots first detected,Brassica leaf-discs; 10 mg/L IBA,5 days
same,roots per site,"Brassica leaf-discs; 10 mg/L IBA, day 5",1-4 roots per site and 1 root per site roots per site
same,number of root sites per disc,"Brassica leaf-discs; 10 mg/L IBA, day 6",132B-2 10 sites and 132B-3 15 sites
same,roots total per disc,"Brassica leaf-discs; 10 mg/L IBA, day 6, disc 132B-1",> 6d 132B-1 over 41 roots total
same,% plates with calli,Brassica leaf-discs; […],100%
"C[S+](C)[O-] [DMSO, dimethyl sulfoxide]",damage to leaf-discs,leaf-discs [2]; dipping into 8% DMSO,does not cause leaf-disc damage
same,damage to leaf-discs,leaf-discs [2]; dipping into 20% DMSO,does not cause leaf-disc damage
same,damage to leaf-discs,"leaf-discs [2]; direct spraying with 20% DMSO, two types of atomizers",causes extensive damage
"[Na+].[O-]Cl [NaClO, sodium hypochlorite]",time for which appearance of fungi is prevented,"plant-derived fungi [3]; prewashing intact leaves with 70% EtOH and 0.24% NaClO, then cutting discs",19 days
same,slowing of first appearance of fungi on agar plates,plant-derived fungi [3]; prewashing leaves or leaf-discs with 70% EtOH and 0.01% NaClO,1 to 2 days
same,slowing of first appearance of fungi on agar plates,plant-derived fungi [3]; prewashing with 70% EtOH and 0.06% NaClO,1 to 2 days
same,damage to intact leaves or leaf-discs,leaf-discs [4],No damage was evident
"O=C(O)Cc1cccc2ccccc12 [NAA, Napthalene Acetic Acid]",production of roots from eggplant leaf-discs,"eggplant leaf-discs; NAA 0.1, 1.0 and 10 mg/L, within 5 d",did not produce of roots
same,Roots first detected,Brassica leaf-discs; 0.1 mg/L NAA,5 days
same,% plates with calli,Brassica leaf-discs; 1 mg/L NAA,67%
same,roots per site,"Brassica leaf-discs; 1 mg/L NAA, day 4",1-3 roots per site and 1 roots per site and 1-2 roots per site
same,roots per site,"Brassica leaf-discs; 1 mg/L NAA, day 5",1-3 roots per site and 1-2 roots per site
same,% plates with calli,Brassica leaf-discs; 10 mg/L NAA,100%
same,Calli first day detected,"Brassica leaf-discs; 10 mg/L NAA in GB + GBV, Incubator B",3 days
same,number of root sites per disc,"Brassica leaf-discs; 10 mg/L NAA, day 4, discs 142B-1 to -3",1 sites
same,roots per site,"Brassica leaf-discs; 10 mg/L NAA, day 5",2 per site and 1-3multiple per site and 1-3 per site
same,plates with roots,"Brassica leaf-discs; NAA 0.1 mg/L, day 5",⅔
same,plates with roots,"Brassica leaf-discs; NAA 1 mg/L, by day 4",all three
same,plates with roots,"Brassica leaf-discs; NAA 10 mg/L, by day 4",all three
same,root sites and roots per site detected,"Brassica leaf-discs; NAA 0.1, 1.0 and 10 mg/L",Multiple root sites and multiple roots per site
same,effect on production of roots from Brassica leaf-discs,"Brassica leaf-discs; NAA 0.1, 1.0 and 10 mg/L in GB+GBV",enhanced and accelerated the production of roots
